According to patent US10576039B2, “Ophthalmic formulation comprising citicoline carried by liposome for the treatment of glaucoma” (Omikron Italia S.r.l., priority 2016, dated 2020):

Assays:
[1] = Citicoline in vitreous humour and blood by HPLC after topical instillation of liposome solution; format: in vivo, male mice of Wistar-Kyoto strain
Text: For the experimental group 12 animals were used for an adequate statistical management of the results (average, standard deviation and significance).
The used number of animals, following statistical evaluation, represents the minimum number therefrom it is possible to obtain significant data. In the study male mice of Wistar-Kyoto strain were used according to previous experiments performed by the research group.
The animals were kept and manipulated in a structure suitable for keeping the animals under optimum conditions (temperature, humidity, ventilation, hygienic conditions). In the study a formulation in solution for ophthalmic use was utilized constituted by […] liposomes including 2% citicoline sodium salt. […]
Moreover on each animal an endocardial blood sample was taken after total anaesthesia both before and after treatment, just before being sacrificed, by using a test tube with EDTA; on such sample, for each animal, the blood count and citicoline presence were determined. […]
After extraction and subsequent centrifugation at 13,000 rpm for 5 minutes at 5° C. the supernatant was taken and injected into a HPLC system equipped with a ultraviolet detector Diode Array and chromatographic column C18—Kromasil 250×4.6 mm with 5-μm particles. Of course, all samples, even the checks, were subjected to the same kind of treatment before being analysed in HPLC. […]

[2] = taken orally, cited from earlier work

vitreous humour citicoline as % of the amount applied topically ([1]; eyes treated topically with liposome solution for three days): 13%
presence/penetration of citicoline in the vitreous humour (in words) ([1]; topical treatment, HPLC elution profile, comparison with citicoline administered in solution (Parisi et al., 2015; Roberti et al., 2015)): present in high concentrations
SMILES: C[N+](C)(C)CCOP(=O)(O)OP(=O)([O-])OC[C@H]1O[C@@H](n2ccc(N)nc2=O)[C@H](O)[C@@H]1O [Citicoline, cytidine-5′-diphosphocholine]
time of plasma peak after ingestion ([2]; first peak): 1 h
time of larger second plasma peak ([2]; later peak): 24 h
fraction excreted in the feces [2]: less than 1%
